In PMC9276671, “A first-in-human Phase I dose-escalation trial of the novel therapeutic peptide, ALM201, demonstrates a favourable safety profile in unselected patients with ovarian cancer and other advanced solid tumours” (British Journal of Cancer, 2022):
Read-outs that look alike come from different tables or passages of the source. No end group written: not given here.

Legend:
[1] = Safety and tolerability: adverse events and DLT (CTCAE v4.03); assay type: in vivo
Method: Eligible participants were enrolled in sequential cohorts treated with a subcutaneous (SC) injection of ALM201, with close monitoring for safety and dose-limiting toxicities (DLTs). Dose levels were not weight-adjusted, and the starting dose for the study was 10 mg ALM201 given on days 1–5, 8–12 and 15–19 every 21 days, i.e., weekday dosing to be given continuously. […] Every new dose cohort was evaluated for the occurrence of a DLT during treatment cycle 1.
This study commenced with an accelerated dose-escalation design, then switched to a conventional algorithm (3 + 3 patients per dose level) to identify the maximum tolerated dose (MTD), escalating on observation of 0/3 or 1/6 DLTs, and de-escalating if two or more patients with DLTs were encountered.
Safety assessments included physical examination, vital signs, biochemistry and haematology laboratory screens, plus immunogenicity testing. Safety evaluations were conducted weekly during each treatment cycle, with DLT assessed during cycle one only. All events and suspected DLTs were graded according to the Common Toxicity Criteria for Adverse Events (CTCAE), version 4.03.

tubulin = tested on: tubulin; set-up: method as in Investigator brochure (IB); settings: ref Investigator brochure (IB), read-out: Tubulin polymerisation IC50, cited from earlier work
[2] = tested on: DU145 and HT29 xenografts; settings: 3.0 mg/kg/day and 0.3 mg/kg/day, 14-day period, BALB-c SCID mouse, ref Investigator brochure (IB); cited from earlier work
Method: In vivo studies using a BALB-c SCID mouse xenograft model with DU145 and HT29 cell-lines, where the small tumours can be directly examined in situ using confocal and standard microscopy have shown that administration of ALM201 inhibits a range of markers of new blood vessel formation. Tumours were typically 1-2 mm at baseline and assessments taken over a 14-day period. Dose levels of 3.0 mg/kg/d ...

[3] = tested on: HT29, DU145 and MDA-231 xenografts; settings: cited from earlier work
xenograft = settings: rat xenograft model, 3 mg/kg; ref Investigator brochure (IB); cited from earlier work
Method: page 41: Almac Discovery Confidential 1.5 Rationale for Dose Selection Based on GLP, 28-day, repeat dose toxicology studies in the dog and rat, the NOAEL for ALM201 was not defined at the maximum dose evaluated of 50 mg/kgxiv. Therefore, based on standard allometric scaling based on the FDA guidelines (FDA, 2005 ), it is predicted that a human equivalent dose (HED) range of 8–28 mg/kg could be given without any drug-related adverse effects. Assuming a starting dose calculation based on a 10-fold safety margin in the most conservative model (the rat); the starting dose would be 0.8 mg/kg. Due t ...

With IRQQPRDPPTETLELEVSPDPAS [ALM201] the “Maximum tolerated dose (MTD)” value ([1]; SC weekday doses of up to 300 mg) was “not reached”, the “CTCAE grade 4-related toxicities” value ([1]; all dose levels) was “no CTCAE grade 4-related toxicities” and the “Thrombotic events, number of patients” value ([1]; cohort 8 (100 mg) and cohort 1 (10 mg)) was “two”. For the same sequence, the “Dose-limiting toxicities (DLTs)” value ([1]; cycle 1, 10-300 mg SC) was “No DLTs”, the “Abdominal wall bruising, causality” value ([1]; in vivo) was “Definite” and the “Anorexia, causality” value ([1]; in vivo) was “Possible”. The “Arthralgia, causality” value ([1]; in vivo) was “Possible”, the “Blurred vision, causality” value ([1]; in vivo) was “Probable” and the “Depression, causality” value ([1]; in vivo) was “Possible”. For the same sequence, the “Diarrhoea, causality” value ([1]; in vivo) was “Possible”, the “Fatigue, causality” value ([1]; in vivo) was “Possible” and the “Headache, causality” value ([1]; in vivo) was “Possible”. For the same sequence, the “Hot flushes, causality” value ([1]; in vivo) was “Possible”, the “Injection-site erythema, causality” value ([1]; in vivo) was “Definite” and the “Injection-site immune reaction, causality” value ([1]; in vivo) was “Definite”. The “Injection-site pain, causality” value ([1]; in vivo) was “Definite”, the “Nausea, causality” value ([1]; in vivo) was “Possible” and the “Oral candidiasis, causality” value ([1]; in vivo) was “Possible”. The “Pedal oedema, causality” value ([1]; in vivo) was “Possible”, the “Pruritus, causality” value ([1]; in vivo) was “Definite” and the “Pulmonary embolus, causality” value ([1]; in vivo) was “Possible”. For the same sequence, the “Pyrexia, causality” value ([1]; in vivo) was “Possible”, the “Urinary tract infection, causality” value ([1]; in vivo) was “Possible” and the “Venous thrombus, causality” value ([1]; in vivo) was “Possible”. For the same sequence, the “Vomiting, causality” value ([1]; in vivo) was “Possible”, the IC50 (tubulin; protocol Table 2) was 0.1 nM and the IC50 (tubulin; protocol Table 3) was 0.11 nM. The “Average vessel diameter, average segment length and vessel branch number” value [2] was “significant decreases”, the “Tumour size relative to vehicle controls” value ([3]; 0.3 mg/kg and 3.0 mg/kg daily or three times weekly, HT29, DU145 and MDA-231, ref Investigator brochure (IB)) was “significant inhibition of tumour size” and the “Anti-tumour activity in vivo” value ([3]; single agent or in combination with chemotherapeutic agents, tumour xenograft models, ref Almac Discovery, manuscript in preparation) was “significant anti-tumour activity”. The Anti-tumour activity (xenograft) was “significant anti-tumour”.
